Read-outs that look alike come from different tables or passages of the source.
Assays:
KRAS G12C = KRAS G12C (Homo sapiens, UniProt P01116+P62937, G12C); assay: Ras-Raf disruption/FRET/MOA assay, KRAS G12C; assay type: biochemical; conditions: disruption of BRAF RBD binding, with Cyclophilin A; read-out: KRAS G12C FRET IC50
Outline: (§1)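 His6-K-Ras-GMPPNP (12.5 nM) was incubated with GST-BRAF RBD (50 nM), tagless cyclophilin A (25 µM) and compound (10-point 3-fold series from 30 µM) in HEPES pH 7.3 buffer for 3 h at 25 °C. Anti-His Eu/anti-GST APC were then added for 1.5 h; disruption was read as a drop in TR-FRET ratio versus DMSO.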

KRAS G12V = KRAS G12V (Homo sapiens, UniProt P01116+P62937, G12V); assay: Ras-Raf disruption/FRET/MOA assay, KRAS G12V; assay type: biochemical; conditions: disruption of BRAF RBD binding, with Cyclophilin A; read-out: KRAS G12V FRET IC50
Outline: as §1

NRAS Q61R = target: T1, NRAS Q61R (Homo sapiens, UniProt P01111+P62937, Q61R); assay: Ras-Raf disruption/FRET/MOA assay, NRAS Q61R; assay type: biochemical; conditions: NRAS Q61R; read-out: NRAS Q61R FRET data IC50
T1 construct: His6
From the text: (§2) Disruption of B-Raf Ras-Binding Domain (BRAF^RBD) Interaction with K-Ras by Compounds of the Invention (Also Called a FRET Assay or an MOA Assay)
(§3) Note—The following protocol describes a procedure for monitoring disruption of K-Ras G12C (GMP-PNP) binding to BRAF^RBD by a compound of the invention. This protocol may also be executed substituting other Ras proteins or nucleotides, such as K-Ras G12D and K-Ras G13D.
(§4) The purpose of this biochemical assay was to measure the ability of test compounds to facilitate ternary complex formation between a nucleotide-loaded K-Ras isoform and Cyclophilin A; the resulting ternary complex disrupts binding to a BRAF^RBD construct, inhibiting K-Ras signaling through a RAF effector.
(§5) In assay buffer containing 25 mM HEPES pH 7.3, 0.002% Tween20, 0.1% BSA, 100 mM NaCl and 5 mM MgCl2, tagless Cyclophilin A, His6-K-Ras-GMPPNP, and GST-BRAF^RBD were combined in a 384-well assay plate at final concentrations of 25 μM, 12.5 nM, and 50 nM, respectively. Compound was present in plate wells as a 10-point 3-fold dilution series starting at a final concentration of 30 μM. After incubation at 25° C. for 3 hours, a mixture of anti-His Eu-W1024 and anti-GST allophycocyanin was then added to assay sample wells at final concentrations of 10 nM and 50 nM, respectively, and the reaction incubated for an additional 1.5 hours. […] Compounds that facilitate disruption of a K-Ras:RAF complex were identified as those eliciting a decrease in the TR-FRET ratio relative to DMSO control wells.

NRAS WT = target: T2, NRAS WT (Homo sapiens, UniProt P01111+P62937); assay: Ras-Raf disruption/FRET/MOA assay, NRAS WT; assay type: biochemical; conditions: NRAS WT; read-out: NRAS WT FRET data IC50
T2 construct: His6
From the text: as §2, §3, §4, §5

KRAS G12D = KRAS G12D (Homo sapiens, UniProt P01116+P62937, G12D); assay: Ras-Raf disruption/FRET/MOA assay, KRAS G12D; assay type: biochemical; conditions: disruption of BRAF RBD binding, with Cyclophilin A; read-out: KRAS G12D FRET IC50
Outline: as §1

AsPC-1 (K-Ras G12D) [1] = assay: CellTiter-Glo cell viability assay, AsPC-1; assay type: cell-based; conditions: Homo sapiens, ASPC1, 120 h, read-out: AsPC-1 Cell Viability IC50
Outline: (§6)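 Compounds dispensed directly onto seeded AsPC-1 (K-Ras G12D) or NCI-H358 (K-Ras G12C) cells; CellTiter-Glo luminescence read on day 5 after ~30 min equilibration to room temperature. Signal normalized to DMSO average (%) and fit by four-parameter logistic.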

KRAS Q61H = KRAS Q61H (Homo sapiens, UniProt P01116+P62937, Q61H); assay: Ras-Raf disruption/FRET/MOA assay, KRAS Q61H; assay type: biochemical; conditions: KRAS Q61H; read-out: KRAS Q61H FRET data IC50
From the text: as §2, §3, §4, §5

NRAS Q61K = target: T3, NRAS Q61K (Homo sapiens, UniProt P01111+P62937, Q61K); assay: Ras-Raf disruption/FRET/MOA assay, NRAS Q61K; assay type: biochemical; conditions: NRAS Q61K; read-out: NRAS Q61K FRET data IC50
T3 construct: His6
From the text: as §2, §3, §4, §5

KRAS G13C = KRAS G13C (Homo sapiens, UniProt P01116+P62937, G13C); assay: Ras-Raf disruption/FRET/MOA assay, KRAS G13C; assay type: biochemical; conditions: disruption of BRAF RBD binding, with Cyclophilin A; read-out: KRAS G13C FRET IC50
Outline: as §1

KRAS G12S = KRAS G12S (Homo sapiens, UniProt P01116+P62937, G12S); assay: Ras-Raf disruption/FRET/MOA assay, KRAS G12S; assay type: biochemical; conditions: disruption of BRAF RBD binding, with Cyclophilin A; read-out: KRAS G12S FRET IC50
Outline: as §1

NRAS G12C = target: T4, NRAS G12C (Homo sapiens, UniProt P01111+P62937, G12C); assay: Ras-Raf disruption/FRET/MOA assay, NRAS G12C; assay type: biochemical; conditions: NRAS G12C; read-out: NRAS G12C FRET data IC50
T4 construct: His6
Outline: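 Disruption of Ras:RAF binding was read as a drop in TR-FRET ratio versus DMSO controls. The buffer was 25 mM HEPES pH 7.3, 0.002% Tween20, 0.1% BSA, 100 mM NaCl and 5 mM MgCl2. Compounds were tested as a 10-point 3-fold dilution series from 30 μM. Detection used 10 nM anti-His Eu-W1024 and 50 nM anti-GST allophycocyanin.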

KRAS G13D = KRAS G13D (Homo sapiens, UniProt P01116+P62937, G13D); assay: Ras-Raf disruption/FRET/MOA assay, KRAS G13D; assay type: biochemical; conditions: disruption of BRAF RBD binding, with Cyclophilin A; read-out: KRAS G13D FRET IC50
Outline: as §1

KRAS WT = KRAS WT (Homo sapiens, UniProt P01116+P62937); assay: Ras-Raf disruption/FRET/MOA assay, KRAS WT; assay type: biochemical; conditions: disruption of BRAF RBD binding, with Cyclophilin A; read-out: KRAS WT FRET IC50
Outline: as §1

AsPC-1 (K-Ras G12D) [2] = assay: Potency assay: pERK in AsPC-1 cells; assay type: cell-based; conditions: Homo sapiens
NCI-H358 (K-Ras G12C) = assay: CellTiter-Glo cell viability assay, H358; assay type: cell-based; conditions: Homo sapiens, NCI-H358, 120 h, read-out: H358 Cell Viability IC50
Outline: as §6

[3] = ASPC1, read-out: pERK EC50 (AsPC-1 KRAS G12D)

Sequence of KRAS G12D (P01116 1-169 isoform P01116-2 G12D limits assumed): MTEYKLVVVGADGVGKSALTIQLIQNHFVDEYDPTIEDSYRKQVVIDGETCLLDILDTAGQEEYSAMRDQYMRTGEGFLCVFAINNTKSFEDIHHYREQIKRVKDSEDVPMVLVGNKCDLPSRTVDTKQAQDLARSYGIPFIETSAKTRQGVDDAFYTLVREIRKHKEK
Sequence of KRAS G12D (P62937 whole entry): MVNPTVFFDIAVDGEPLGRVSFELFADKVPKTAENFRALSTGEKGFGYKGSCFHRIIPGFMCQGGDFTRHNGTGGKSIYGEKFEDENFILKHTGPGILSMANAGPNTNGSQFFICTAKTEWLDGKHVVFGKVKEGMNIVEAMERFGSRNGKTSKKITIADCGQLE
T1 sequence (P01111 whole entry Q61R): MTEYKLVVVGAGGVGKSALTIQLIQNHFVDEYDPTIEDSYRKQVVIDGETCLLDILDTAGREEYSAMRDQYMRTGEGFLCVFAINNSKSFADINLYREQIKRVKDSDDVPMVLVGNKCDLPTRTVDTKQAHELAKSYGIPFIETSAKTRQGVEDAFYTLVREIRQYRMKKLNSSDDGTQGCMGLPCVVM
T1 sequence (P62937 whole entry): as the sequence (P62937 whole entry) above
T2 sequence (P01111 whole entry): as the sequence (P01111 whole entry Q61R) above, with R61Q counted along it
T2 sequence (P62937 whole entry): as the sequence (P62937 whole entry) above
T4 sequence (P01111 whole entry G12C): as the sequence (P01111 whole entry Q61R) above, with G12C, R61Q counted along it
T4 sequence (P62937 whole entry): as the sequence (P62937 whole entry) above
Sequence of KRAS G12V (P01116 1-169 isoform P01116-2 G12V limits assumed): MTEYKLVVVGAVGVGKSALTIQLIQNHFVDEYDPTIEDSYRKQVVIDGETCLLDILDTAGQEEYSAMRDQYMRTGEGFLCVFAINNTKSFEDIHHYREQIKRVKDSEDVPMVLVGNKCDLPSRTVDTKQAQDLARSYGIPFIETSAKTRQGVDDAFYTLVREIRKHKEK
Sequence of KRAS G12V (P62937 whole entry): as the sequence (P62937 whole entry) above
Sequence of KRAS G12C (P01116 1-169 isoform P01116-2 G12C limits assumed): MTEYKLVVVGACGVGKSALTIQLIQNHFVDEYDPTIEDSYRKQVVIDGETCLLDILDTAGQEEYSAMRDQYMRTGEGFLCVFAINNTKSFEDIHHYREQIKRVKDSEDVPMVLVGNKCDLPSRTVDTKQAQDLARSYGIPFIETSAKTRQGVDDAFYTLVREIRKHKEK
Sequence of KRAS G12C (P62937 whole entry): as the sequence (P62937 whole entry) above
Sequence of KRAS Q61H (P01116 1-169 isoform P01116-2 Q61H limits assumed): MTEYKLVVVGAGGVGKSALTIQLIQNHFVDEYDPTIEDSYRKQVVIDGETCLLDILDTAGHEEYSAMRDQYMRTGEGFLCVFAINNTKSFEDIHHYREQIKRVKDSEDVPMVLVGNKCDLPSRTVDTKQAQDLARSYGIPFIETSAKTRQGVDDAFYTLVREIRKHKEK
Sequence of KRAS Q61H (P62937 whole entry): as the sequence (P62937 whole entry) above
Sequence of KRAS G12S (P01116 1-169 isoform P01116-2 G12S limits assumed): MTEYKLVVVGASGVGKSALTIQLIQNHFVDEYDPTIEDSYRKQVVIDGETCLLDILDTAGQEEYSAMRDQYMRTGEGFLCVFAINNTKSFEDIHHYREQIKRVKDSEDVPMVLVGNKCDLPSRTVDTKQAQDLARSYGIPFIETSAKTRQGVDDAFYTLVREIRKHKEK
Sequence of KRAS G12S (P62937 whole entry): as the sequence (P62937 whole entry) above
Sequence of KRAS G13D (P01116 1-169 isoform P01116-2 G13D limits assumed): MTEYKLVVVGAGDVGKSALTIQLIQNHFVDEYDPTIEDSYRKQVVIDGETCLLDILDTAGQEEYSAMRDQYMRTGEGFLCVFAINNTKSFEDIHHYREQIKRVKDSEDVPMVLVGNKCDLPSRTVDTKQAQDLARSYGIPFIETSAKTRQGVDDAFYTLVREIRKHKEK
Sequence of KRAS G13D (P62937 whole entry): as the sequence (P62937 whole entry) above
T3 sequence (P01111 whole entry Q61K): as the sequence (P01111 whole entry Q61R) above, with R61K counted along it
T3 sequence (P62937 whole entry): as the sequence (P62937 whole entry) above
Sequence of KRAS G13C (P01116 1-169 isoform P01116-2 G13C limits assumed): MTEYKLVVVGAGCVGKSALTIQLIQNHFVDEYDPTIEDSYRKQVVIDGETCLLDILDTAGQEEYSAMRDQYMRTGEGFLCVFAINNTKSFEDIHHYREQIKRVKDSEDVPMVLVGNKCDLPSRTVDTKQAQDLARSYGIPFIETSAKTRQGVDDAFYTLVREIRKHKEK
Sequence of KRAS G13C (P62937 whole entry): as the sequence (P62937 whole entry) above
Sequence of KRAS WT (P01116 1-169 isoform P01116-2 limits assumed): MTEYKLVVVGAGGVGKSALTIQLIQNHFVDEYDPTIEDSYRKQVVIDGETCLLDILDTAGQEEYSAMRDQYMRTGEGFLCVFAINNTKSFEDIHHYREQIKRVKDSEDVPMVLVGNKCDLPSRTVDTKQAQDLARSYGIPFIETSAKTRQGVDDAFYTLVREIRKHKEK
Sequence of KRAS WT (P62937 whole entry): as the sequence (P62937 whole entry) above

Compound	IC50 (KRAS G12C) [nM]	IC50 (KRAS G12V) [nM]	IC50 (NRAS Q61R) [nM]	IC50 (NRAS WT) [nM]	IC50 (KRAS G12D) [nM]	IC50 (AsPC-1 (K-Ras G12D) [1]) [nM]	IC50 (KRAS Q61H) [nM]	IC50 (NRAS Q61K) [nM]	IC50 (KRAS G13C) [nM]	IC50 (KRAS G12S) [nM]	IC50 (NRAS G12C) [nM]	IC50 (KRAS G13D) [nM]	IC50 (KRAS WT) [nM]	EC50 (AsPC-1 (K-Ras G12D) [2]; [3]) [nM]	EC50 (AsPC-1 (K-Ras G12D) [2]; ASPC1, AsPC-1 cells, K-Ras G12D, read-out: pERK EC50 (AsPC-1 KRAS G12D)) [nM]	IC50 (AsPC-1 (K-Ras G12D) [1]; AsPC-1, K-Ras G12D, 5-day treatment) [nM]	IC50 (NCI-H358 (K-Ras G12C)) [nM]
CCn1c(-c2cnccc2COC)c2c3cc(ccc31)-c1cc(O)cc(c1)C[C@H](NC(=O)[C@H](C(C)C)N(C)C(=O)CN(C)C(=O)[C@@H]1CN1S(C)(=O)=O)C(=O)N1CCC[C@H](N1)C(=O)OCC(C)(C)C2 (stereo partly shown) [Compound 37]	10 to 100	100 to 1000	100 to 1000	10 to 100	100 to 1000	> 10000	10 to 100	100 to 1000	10 to 100	10 to 100	10 to 100	100 to 1000	10 to 100				
CCn1c(-c2cnccc2COC)c2c3cc(ccc31)-c1cc(O)cc(c1)C[C@H](NC(=O)[C@H](C(C)C)N(C)C(=O)CN(C)C(=O)[C@H]1CN1S(C)(=O)=O)C(=O)N1CCC[C@H](N1)C(=O)OCC(C)(C)C2 (stereo partly drawn) [Example 36, (2R)—N-(2-(((2S)-1-(((6^3S,4S)-1^1-ethyl-2^5-hydroxy-1^2-(4-(methoxymethyl)pyridin-3-yl)-10,10-dimethyl-5,7-dioxo-6^1,6^2,6^3,6^4,6^5,6^6-hexahydro-1^1H-8-oxa-1(5,3)-indola-6(1,3)-pyridazina-2(1,3)-benzenacycloundecaphane-4-yl)amino)-3-methyl-1-oxobutan-2-yl)(methyl)amino)-2-oxoethyl)-N-methyl-1-(methylsulfonyl)aziridine-2-carboxamide]	10 to 100	10 to 100	100 to 1000	100 to 1000	100 to 1000	> 10000	10 to 100	100 to 1000	10 to 100	10 to 100	10 to 100	100 to 1000	10 to 100	< 5000			
CCn1c(-c2cccnc2[C@H](C)OC)c2c3cc(ccc31)-c1cc(O)cc(c1)C[C@H](NC(=O)[C@H](C(C)C)N1CCCC3(CN(C(=O)[C@@H]4CN4)C3)C1=O)C(=O)N1CCC[C@H](N1)C(=O)OCC(C)(C)C2 [Compound 306]	< 10	10 to 100	100 to 1000	10 to 100	100 to 1000		10 to 100	100 to 1000	10 to 100	10 to 100	< 10	10 to 100	10 to 100		< 5000	1000 to 10000	
CCn1c(-c2cnccc2COC)c2c3cc(ccc31)-c1cc(O)cc(c1)C[C@H](NC(=O)[C@H](C(C)C)N(C)C(=O)CN(C)C(=O)[C@H]1[C@@H](C3CC3)N1[S@+]([O-])C(C)(C)C)C(=O)N1CCC[C@H](N1)C(=O)OCC(C)(C)C2 (stereo partly shown) [Compound 52]	10 to 100	100 to 1000			100 to 1000	1000 to 10000			100 to 1000	10 to 100	10 to 100	100 to 1000	10 to 100	< 5000			100 to 1000
